Test results as given in paper PMC8963105, “A Novel Modulator of the Renin–Angiotensin System, Benzoylaconitine, Attenuates Hypertension by Targeting ACE/ACE2 in Enhancing Vasodilation and Alleviating Vascular Inflammation” (Frontiers in Pharmacology, 2022).

Assays:
ACE2 = ACE2 protein expression in HUVECs (Western blot, immunofluorescence); assay type: cell-based, human; details: HUVECs, 25, 50, 100 μM, 24 h
Source text: Human umbilical vein endothelial cells (HUVECs) were isolated from umbilical cords as previously described ([Jaffe et al., 1973]). They were purchased from ATCC (cat# CRL-1444, Manassas, VA, United States) and cultured in endothelial cell medium (ECM, ScienCell, Carlsbad, CA, United States) supplemented with 5% FBS, 1% endothelial cell growth supplement, and 1% antibiotics (Sigma, St. Louis, MO, United States). Cells harvested between the third and tenth passages were used in the experiments. Cells were cultured until they were ∼80% confluent. […]
After treatment with different concentrations of BAC (Control, DMSO, 25, 50, and 100 μM, dissolved in 0.1% DMSO–DMEM) for 24 h, the cells were washed with PBS three times, fixed in 4% paraformaldehyde for 20 min, permeabilized with 0.3% Triton X-100 for 20 min, and then blocked with 5% BSA for 30 min at room temperature of 25°C. […] The samples were analyzed using a confocal laser scanning microscope (Zeiss LSM 510 META, Oberkochen, Germany).
The cell samples and tissue sample were collected and placed in ice rapidly. […] Protein concentration in cell lysates was measured using a Bio-Rad DC Protein Assay Kit […]. […]

thoracic aorta = assay: vascular function: Ang I pre-constricted isolated thoracic aorta; details: isolated aorta of SD rat, Ang I 10^–2 μM
Protocol: Endothelium-dependent vasorelaxation using aorta was evaluated as previously described ([Liao et al., 2019]). Briefly, after euthanizing the SD rat with sodium pentobarbital (100 mg kg^−1, i.p.) administration in combination with isoflurane inhalation, thoracic aorta (diameter: 150–250 μm, length: 2 mm) was mounted on two tungsten wires and attached to a tension sensor system (ADInstruments). After balancing for 2 h in Krebs’ solution at 37°C, arteries were exposed to 10 µM of phenylephrine (PE, Sigma-Aldrich, St. Louis, MO, United States) twice, followed by a single dose of acetylcholine (Ach, 3 μm, Sigma-Aldrich, St. Louis, MO, United States) to evaluate the integrity of the vessel. Afterward, the vessel was pre-constricted to maximum using AngI (Sigma-Aldrich) at 10^–2 μM and then treated with a series concentration of BAC or A779 (Sigma-Aldrich) or captopril at 10^–6 to 10^–1 μM. Lastly, a cumulative concentration response curve to BAC with A779 (at 10^–2 μM) was performed to assess the endothelium-dependent vasorelaxation.

## CCN1CC2(COC)C(O)CC(OC)C34C5CC6(O)C(OC)C(O)C(O)(C5C6OC(=O)c5ccccc5)C(C(OC)C23)C14 (stereo not drawn) [BAC, Benzoylaconitine]
ACE2
  protein expression of ACE2: does not affect
Thoracic aorta; 10^–6 to 10^–1 μM
  Ang I-induced vascular constriction: attenuate
Thoracic aorta; with A779
  attenuation of Ang I-induced vascular constriction in presence of Mas inhibitor A779: abolished
